Source: US20080125496A1, “ANTIMICROBIAL FLAVOR AND ORAL CARE COMPOSITION CONTAINING THE SAME” (TAKASAGO INTERNATIONAL CORPORATION, priority 2001, published 2008)
In brackets after ≈: the same amount, converted by molar mass. Read-outs that look alike come from different tables or passages of the source.

What was measured:
Assay type in all cases: cell-based
[1] = tested on: Actinomyces viscosus JCM 8352; test: MIC by agar plate dilution method, Av-1; conditions: for MIC: Actinomyces viscosus, read-out: MIC Av-1 (caries-related bacteria)
Method: (§1) The minimum inhibitory activities of the antimicrobial flavors of the invention on anaerobic oral bacteria were measured by an agar plate dilution method.
(§2) All the test strains were obtained from Riken (The Institute of Physical and Chemical Research). The names and abbreviations of the strains are shown in Table 1 below (The abbreviations are used in the following description).
(§3) Each test microorganism kept frozen (−80° C.) in glycerol at a concentration of 25% was thawed. A 100 μl portion of the suspension was inoculated into 10 ml of a liquid medium. A Gifu university anaerobic medium (GAM) (Nissui Pharmaceutical Co., Ltd) having added thereto Hemin (Tokyo Kasei) and Menadione (Sigma) was used for Su-1 and Fn-1. Schaedler Broth (BBL) having added thereto Hemin and Menadione was used for the other strains. The culture was anaerobically incubated at 37° C. for 72 hours by using BBL Gas Pack Anaerobic System. After the cultivation, the microbial cell suspension of Su-1 was 10-fold diluted to prepare an inoculum. The cultures of Fn-1 and Pg-1 were used as such as an inoculum. The cultures of Pt-1, Aa-1, and Av-1 were subjected to centrifugation, and the separated microbial cells were suspended in 2 ml of sterilized physiological saline to prepare the respective inoculums.
(§4) An agar medium prepared by adding 2% agar (Difco), Hemin, and Menadione to Trypticase Soy Broth (BBL) was used. A test sample (antimicrobial flavor) was dissolved in ethanol to prepare 2-fold serial dilutions. To 10 ml of the agar medium was added 100 μl of each dilution and stirred well. The agar medium was transferred to a petri dish (diameter: 9 cm) and solidified at room temperature. The solidified agar medium was inoculated with 5 μl of the inoculum by means of a multipoint inoculator (Microplanter MIT-P27, supplied by Sakuma Seisakusho), followed by culturing at 37° C. for 72 hours under anaerobic conditions. The growth of the test microorganism was compared with a blank petri dish (the agar medium to which 100 μl of ethanol had been added). The lowest sample concentration that inhibited growth was taken as MIC (ppm).
(§5) Antimicrobial activities (MIC; ppm) of the aromahygiene base (AHB) prepared in (1) and the antimicrobial flavor compositions prepared in (2) (Examples 2-1 to 2-3) and Comparative Examples 2-1 to 2-3 were measured in the same manner as in Example 1 (2).

[2] = tested on: Prevotella intermedia JCM 6322; test: MIC by agar plate dilution method, Pt-1; conditions: for MIC: Prevotella intermedia, read-out: MIC Pt-1 (paradentosis-related bacteria)
Method: as §1, §2, §3, §4, §5

[3] = tested on: Actinomyces naeslundii JCM 8350; test: MIC by agar plate dilution method, Aa-1; conditions: for MIC: Actinomyces naeslundii, read-out: MIC Aa-1 (caries-related bacteria)
Method: as §1, §2, §3, §4, §5

[4] = tested on: Streptococcus mutans JCM 5175; test: MIC by agar plate dilution method, Su-1; conditions: for MIC: Streptococcus mutans, read-out: MIC Su-1 (caries-related bacteria)
Method: as §1, §2, §3, §4, §5

[5] = tested on: Porphyromonas gingivalis JCM 8525; test: MIC by agar plate dilution method, Pg-1; conditions: for MIC: Porphyromonas gingivalis, read-out: MIC Pg-1 (paradentosis-related bacteria; head Fg-1 in Tables 2 and 3)
Method: as §1, §2, §3, §4, §5

[6] = tested on: Fusobacterium nucleatum JCM 6328; test: MIC by agar plate dilution method, Fn-1; conditions: for MIC: Fusobacterium nucleatum, read-out: MIC Fn-1 (paradentosis-related bacteria)
Method: as §1, §2, §3, §4, §5

[7] = agar medium, 37° C., 72 hours, anaerobic conditions
[8] = JCM8352, agar medium, 37° C., 72 hours, anaerobic conditions
[9] = JCM6322, agar medium, 37° C., 72 hours, anaerobic conditions
[10] = JCM8350, agar medium, 37° C., 72 hours, anaerobic conditions
[11] = JCM5175, agar medium, 37° C., 72 hours, anaerobic conditions
[12] = JCM8525, agar medium, 37° C., 72 hours, anaerobic conditions
[13] = JCM6328, agar medium, 37° C., 72 hours, anaerobic conditions

Row | SMILES | MIC Av-1 (caries-related bacteria) [1, 7] [ppm] | MIC Pt-1 (paradentosis-related bacteria) [2, 7] [ppm] | MIC Aa-1 (caries-related bacteria) [3, 7] [ppm] | MIC Su-1 (caries-related bacteria) [4, 7] [ppm] | MIC Pg-1 (paradentosis-related bacteria; head Fg-1 in Tables 2 and 3) [5, 7] [ppm] | MIC Fn-1 (paradentosis-related bacteria) [6, 7] [ppm] | also measured
1 | CC1=CCC(C/C=C(\C)CO)C1(C)C (stereo not shown) [Santalinol] | 62.5 | 31.3 | 62.5 | 250 | 15.6 | 125 | –
2 | CC1C(C)(C)C2=C(C(=O)CCC2)C1(C)C (stereo not shown) [Cashmerane] | 1000 | 250 | 1000 | >1000 | 250 | >1000 | –
3 | O=C1CCCCCCCCCCC(=O)OCCO1 [Ethylenedodecanedioate] | 250 | >1000 | >1000 | >1000 | 31.3 | >1000 | –
4 | O=C1CCCC=CCCCCCCCCCC1 [5-cyclohexadecen-1-one] | – | – | – | – | – | – | MIC [1, 8]: > 1000 µg/mL; MIC [2, 9]: 31.3 µg/mL (≈ 132 µM); MIC [3, 10]: > 1000 µg/mL; MIC [4, 11]: > 1000 µg/mL; MIC [5, 12]: 15.6 µg/mL (≈ 66 µM); MIC [6, 13]: > 1000 µg/mL
5 | CCCCCCCCCCC=O [Undecanal] | – | – | – | – | – | – | MIC [1, 8]: 500 µg/mL (≈ 2940 µM); MIC [3, 10]: 500 µg/mL (≈ 2940 µM); MIC [4, 11]: 1000 µg/mL (≈ 5870 µM); MIC [5, 12]: 125 µg/mL (≈ 734 µM); MIC [6, 13]: 500 µg/mL (≈ 2940 µM)
6 | CC(C=O)Cc1ccc2c(c1)OCO2 (stereo not shown) [Helional] | 500 | 1000 | 250 | 1000 | 125 | 1000 | –
7 | CC/C(=C\C[C@H]1CC=C(C)C1(C)C)CO [Levosandol] | 62.5 | 31.3 | 62.5 | 125 | 31.3 | 62.5 | –
8 | C=CC(C)(O)CC/C=C(\C)CCC=C(C)C (stereo not shown) [Neroridol] | 125 | 31.3 | 125 | 500 | 31.3 | 50 | –
9 | CC(=O)O[C@]1(C)CC[C@@]23C[C@@H]1C(C)(C)[C@@H]2CC[C@H]3C [Cedryl acetate] | – | – | – | – | – | – | MIC ([1]; JCM8352, 72 h): > 1000 µg/mL; MIC ([2]; JCM6322, 72 h): 62.5 µg/mL; MIC ([3]; JCM8350, 72 h): > 1000 µg/mL; MIC ([4]; JCM5175, 72 h): > 1000 µg/mL; MIC ([5]; JCM8525, 72 h): 31.3 µg/mL; MIC ([6]; JCM6328, 72 h): > 1000 µg/mL
10 | CC/C(=C\CC1CC=C(C)C1(C)C)CO (stereo not shown) [Bacdanol] | 62.5 | – | 125 | 125 | 31.3 | 62.5 | –
11 | CC(C=O)Cc1ccc(C(C)(C)C)cc1 (stereo not shown) [Lilial] | 500 | 62.5 | 125 | 500 | 62.5 | 500 | –
12 | C=CCCCCCCCCCO [10-undecen-1-ol] | – | – | – | – | – | – | MIC [1, 8]: 125 µg/mL (≈ 734 µM); MIC [2, 9]: 31.3 µg/mL (≈ 184 µM); MIC [3, 10]: 125 µg/mL (≈ 734 µM); MIC [4, 11]: 250 µg/mL (≈ 1470 µM); MIC [5, 12]: 31.3 µg/mL (≈ 184 µM); MIC [6, 13]: 125 µg/mL (≈ 734 µM)
13 | COC(=O)c1c(C)cc(O)c(C)c1O [Methyl atrarate] | 62.5 | 62.5 | 62.5 | >1000 | 31.3 | 125 | –
